Values quoted from earlier work as cited in patent publication US20230390267A1, “TREATMENT REGIMENS FOR EARLY IDIOPATHIC PARKINSON'S DISEASE” (BIAL - PORTELA & CA., S.A., priority 2020, published 2023).
Where two headings read alike, the source gives them in different places.

Experiments:
[1] = cited from earlier work
[2] = test system: 'stable' PD patients; conditions: 6 months, cited from earlier work
[3] = test system: patients suffering from early idiopathic Parkinson's disease; conditions: addition of entacapone to levodopa/DDCI in early PD; cited from earlier work
[4] = tolcapone 100 mg three times daily
[5] = tolcapone 200 mg three times daily

Structure (SMILES): N[C@@H](Cc1ccc(O)c(O)c1)C(=O)O [levodopa]
- plasma half-life of levodopa ([1]; oral levodopa combined with carbidopa): 1.5 h
- half-life of oral levodopa ([1]; when administered with DDCIs): 1 to 1.5 h
- extent of brain penetration of levodopa ([1]; when combined with a DDCI): 10%

Structure (SMILES): Cc1ccc(C(=O)c2cc(O)c(O)c([N+](=O)[O-])c2)cc1 [tolcapone]
- reduction in UPDRS Part II activities of daily living (ADL) score [2, 4]: −1.4 points
- reduction in UPDRS motor score [2, 4]: −2.0 points
- reduction in UPDRS Part II activities of daily living (ADL) score [2, 5]: −1.6 points
- reduction in UPDRS motor score [2, 5]: −2.3 points

Structure (SMILES): CCN(CC)C(=O)/C(C#N)=C/c1cc(O)c(O)c([N+](=O)[O-])c1 [entacapone]
- onset of motor complications and frequency of dyskinesia [3]: shorter time to onset of motor complications and increased frequency of dyskinesia
